# Paper PMC8856561, “Pharmacological and genetic activation of cAMP synthesis disrupts cholesterol utilization in Mycobacterium tuberculosis” (PLoS Pathogens, 2022)
# Like-named read-outs stand apart in the source and are kept apart here.
# Columns and labels:
# [1] = test system: Mtb; test: microbe, parasite or virus in culture; assay type: cell-based, Mycobacterium tuberculosis; settings: Mycobacterium tuberculosis, cholesterol media
# [2] = test system: Mtb; assay type: cell-based, Mycobacterium tuberculosis; settings: 10 μM
# [3] = test system: Mtb; test: microbe, parasite or virus in culture; assay type: cell-based; settings: Mycobacterium tuberculosis; media with cholesterol and acetate
# [4] = in vitro; settings: CD-1, mouse, plasma
# [5] = in vitro; settings: human
# [6] = test system: Mtb; test: Quantification of bacterial cAMP in Mtb; assay type: cell-based, Mycobacterium tuberculosis
# [7] = physchem; settings: pH 6.8, aqueous buffer, kinetic from dmso stock
# [8] = test system: CYP1A2, CYP2C9, CYP2C19, CYP2D6, CYP3A4; test: in vitro; settings: human, pH 7.2
# [9] = in vitro; settings: human; remark: listed apart in the source
# [10] = test system: Mtb in murine macrophages; test: Mtb replication in macrophages (intramacrophage EC50); assay type: cell-based; settings: Mycobacterium tuberculosis, Macrophage
# [11] = test system: Mtb; test: microbe, parasite or virus in culture; assay type: cell-based; settings: Mycobacterium tuberculosis; read-out: 7H9 OADC EC50
# [12] = test system: Erdman Mtb; test: Mouse infection, BALB/c; assay type: in vivo, BALB/c mice
# [13] = test system: Erdman Mtb; test: Mouse infection, C3HeB/FeJ; assay type: in vivo, C3HeB/FeJ mice; settings: 50 mg/kg oral once-daily weeks 4-8, intranasal infection
# [14] = test system: Mtb; assay type: cell-based, Mycobacterium tuberculosis; settings: media containing fatty acid
# [15] = 0.98 µM, pH 7.2
# Description: Liver microsomal stability
# (§1) Liver microsomes from mouse (Xenotech), human (Corning) rat (Xenotech) and dog (Xenotech)
# (§2) were prepared in potassium phosphate buf fer (100 mM) pH 7. 2. Experimental compounds were
# (§3) dissolved in DMSO (100%) to a stock concentration of 10 mmol. A working compound solution
# (§4) was made by diluting 5 µL of compound stock into 495 µL of acetonitrile (100%) to the final
# (§5) concentration of compound (100 µM) and acetonitrile (99%). Similarly, positive control
# (§6) compounds (Testosterone, Dichlofenac, and Propafenone) were dissolved in DMSO (100% to a
# (§7) stock concentration of 10 mM in DMSO, and were diluted with 495 µL of acetonitrile (100%) to
# (§8) the final concentration of compound (100 µM) and acetonitrile (99%). NADPH•4Na was dissolved
# (§9) into a 10 mM MgCl2 solution (10 unit/mL) generating as a 10x cofactor stock. Pre-warmed
# (§10) incubation plates were filled with 445 µL potassium phosphate buffer and incubated for 10 min at
# (§11) 37°C with constant shaking. Liver microsomes (54 µL) liver and NADPH stock (6 µL) were added
# (§12) to the plates. Working solution of compounds (5 µL) was added into the incubation plates
# (§13) containing microsomes and mixed thoroughly before incubating at 37°C for 60 min under constant
# (§14) shaking at 100 rpm. Reactions were stopped by the addition of 100 µl cold acetonitrile (100%)
# (§15) containing the internal standards tolbutamide (200 ng/mL) and labetalol (200 ng/mL). All plates
# (§16) were shaken for 10 min, then centrifuged at 4000 rpm for 20 minutes at 4°C. The cell free
# (§17) supernatant was transferred into HPLC water and mixed by shaking the plate for 10 min minutes
# (§18) prior to metabolite quantification by LC-MS/MS a nalysis.
# (§19) The equation of first order kinetics was used to calculate T1/2 and CLin t(mic ) (µL/min/mg):
# Equation of first order kinetics:
# (§20) <=@(#<S) X= Y<@Z[ \] #_⁄#‘ #<SZ[a[#$b cZ[@L<= <= ZL$S@<[=
# 𝐶𝐿 = 𝐶𝐿 ∙ #_ #<SZ[a[#La ∙ _ b<Y LZ
# (§21) <=@(b<Y LZ) <=@(#<S) _ b<Y LZ D_ e[fg hL<_i@
# (§22) T1/2 is half life and CLin t ( mic ) is the intrinsic clearance
# (§23) CLin t ( mic ) = 0.693/half life/mg microsome protein per mL
# (§24) CLin t(l iv e r) = CLin t ( mic ) * mg microsomal protein/g liver weight * g liver weight/kg body weight
# Extraction ratio calculation
# (§25) Extraction ratio (ER) = CLH/QH= CLint(liver) / (CLint(liver) + Qh)
# Qh is Hepatic Blood Flow (mL/min/kg)
# [16] = test system: Mtb; assay type: cell-based, Mycobacterium tuberculosis; settings: for 14CO2 release from [4-14C]-cholesterol: 10 μM
# [17] = 0.98 µM, pH 7.2; remark: listed apart in the source
# Description: Liver microsomal stability
# as §1, §2, §3, §4, §5, §6, §7, §8, §9, §10, §11, §12, §13, §14, §15, §16, §17, §18, §19
# Equation of first order kinetics:
# as §20
# 𝐶𝐿 = 𝐶𝐿 ∙ #_ #<SZ[a[#La ∙ _ b<Y LZ
# as §21, §22, §23, §24
# Extraction ratio calculation
# as §25
# Qh is Hepatic Blood Flow (mL/min/kg)
# [18] = target: hERG potassium channel (Homo sapiens, UniProt Q12809); test: Manual patch clamp assay for hERG inhibition
# [19] = test system: MKR strain of Mtb; parameters: method as in PMID 33542438; settings: infected macrophages ref 13; cited from earlier work
# [20] = in vitro; settings: human, plasma
# [21] = 0.98 µM, pH 7.2; remark: listed apart in the source
# Description: Liver microsomal stability
# as §1, §2, §3, §4, §5, §6, §7, §8, §9, §10, §11, §12, §13
# (§26) shaking at 100 rpm. Reactions were stopped by the addition of 100 µl cold acetonitrile (100%) […]
# (§27) prior to metabolite quantification by LC-MS/MS a nalysis. […]
# [22] = 0.98 µM, pH 7.2; remark: listed apart in the source
# Description: Liver microsomal stability
# as §1, §2, §3, §4, §5, §6, §7, §8, §9, §10, §11, §12, §13, §26, §27
# [23] = 50 mg/kg oral once-daily weeks 4-8, intranasal infection, BALB/c
# [24] = 30mg/kg oral once-daily weeks 4-8, intranasal infection, BALB/c
# hERG potassium channel, sequence (Q12809 whole entry): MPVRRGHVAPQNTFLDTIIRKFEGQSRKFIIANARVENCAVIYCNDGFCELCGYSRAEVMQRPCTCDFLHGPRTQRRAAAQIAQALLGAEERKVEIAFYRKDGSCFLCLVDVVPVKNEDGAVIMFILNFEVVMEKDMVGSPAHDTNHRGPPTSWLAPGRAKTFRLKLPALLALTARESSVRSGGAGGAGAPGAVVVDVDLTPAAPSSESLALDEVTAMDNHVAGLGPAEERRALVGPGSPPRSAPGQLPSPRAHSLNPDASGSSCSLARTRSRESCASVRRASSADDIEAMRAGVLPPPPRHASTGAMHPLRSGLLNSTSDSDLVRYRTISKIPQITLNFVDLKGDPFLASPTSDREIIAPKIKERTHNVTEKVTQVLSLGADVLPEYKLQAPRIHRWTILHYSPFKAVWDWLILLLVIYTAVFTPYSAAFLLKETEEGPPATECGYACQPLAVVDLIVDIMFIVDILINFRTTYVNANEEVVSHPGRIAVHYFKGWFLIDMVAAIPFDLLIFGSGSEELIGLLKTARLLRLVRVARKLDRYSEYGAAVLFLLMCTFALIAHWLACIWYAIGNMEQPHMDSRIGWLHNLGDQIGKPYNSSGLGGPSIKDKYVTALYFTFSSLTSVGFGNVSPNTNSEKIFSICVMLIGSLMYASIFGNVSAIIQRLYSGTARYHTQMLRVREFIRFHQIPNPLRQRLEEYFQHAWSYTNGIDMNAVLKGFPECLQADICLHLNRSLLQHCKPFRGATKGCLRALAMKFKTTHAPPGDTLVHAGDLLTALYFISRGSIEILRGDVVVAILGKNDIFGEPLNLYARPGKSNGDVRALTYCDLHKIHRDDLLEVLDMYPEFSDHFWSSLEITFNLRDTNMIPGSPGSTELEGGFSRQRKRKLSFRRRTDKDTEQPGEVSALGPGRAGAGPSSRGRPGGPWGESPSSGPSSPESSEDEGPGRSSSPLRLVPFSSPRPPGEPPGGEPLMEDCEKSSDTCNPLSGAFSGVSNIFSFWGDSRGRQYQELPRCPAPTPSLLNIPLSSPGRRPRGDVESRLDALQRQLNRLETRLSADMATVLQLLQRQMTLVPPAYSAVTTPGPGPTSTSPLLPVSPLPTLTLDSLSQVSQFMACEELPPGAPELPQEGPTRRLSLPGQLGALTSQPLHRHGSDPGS
Structure (SMILES),EC50 [3],fraction unbound at 4 h [4],CC50 at 72 h [5],solubility at 24 h [7],IC50 at 10 min [8],CC50 at 72 h [9],EC50 [10],EC50 [11],ER mouse [15],ER human [17],IC50 [18],EC50 ([1]; read-out: Cholesterol EC50),fraction unbound at 4 h [20],ER rat [21],ER dog [22],other results
"Cc1nonc1CC(=O)N1CCC(n2nnc(-c3ccc(F)cc3)n2)CC1 [V-59, 1-(4-(5-(4-fluorophenyl)-2H-tetrazol-2-yl)piperidin-1-yl)-2-(4-methyl-1,2,5-oxadiazol-3-yl)ethan-1-one]",> 50 µM,0.173,> 20 µM,4.63 µM,> 30 µM,> 20 µM,0.3 µM,> 50 µM,0.3,0.3,8.9 µM,,,,,"EC50 ([1]; read-out: EC50 in cholesterol media): 0.7 µM; decrease of prpD'::GFP signal ([2]; CompFull strain): ~ 90%; decrease of prpD'::GFP signal ([2]; WT): ~ 50%; prpD'::GFP signal ([2]; ΔRv1625c or CompD204 strains, cholesterol media or macrophage infection): did not impact; cAMP induction [6]: ~ 70 fold; cAMP induction ([6]; CompFull strain, 24 hours): ~ 140 fold; reduction in lung CFUs [12, 23]: ~ 0.4 log10; reduction of extent of lung inflammation [12, 23]: ~ 50%; reduction in lung CFUs [13]: ~ 0.5 log10; 14CO2 released from breakdown of [U-14C]-palmitate [14]: no measurable effect; decrease of 14CO2 release from [4-14C]-cholesterol [16]: ~ 89%; 14CO2 release from [4-14C]-cholesterol ([16]; CompD204 strain lacking cyclase domain): did not prevent; 14CO2 release from [4-14C]-cholesterol ([16]; CompFull strain): inhibited; intracellular survival of MKR strain [19]: selectively reduced intracellular survival"
Cc1nonc1CC(=O)N1CCC(c2nc(-c3ccc(F)cc3)no2)CC1 [mCIS635],> 50 µM,0.056,> 20 µM,34.4 µM,> 50 µM,> 20 µM,0.27 µM,> 50 µM,0.4,0.3,9.5 µM,0.15 µM,,,,
"Cn1ncnc1CC(=O)N1CCC(c2nc(-c3ccc(Cl)c(Cl)c3)no2)CC1 [mCLB073, 1-(4-(3-(3,4-dichlorophenyl)-1,2,4-oxadiazol-5-yl)-1-piperidinyl)-2-(2-methyl-2H-1,2,4-triazol-3-yl)-1-ethanone]",> 50 µM,0.037,> 20 µM,160 µM,> 50 µM,> 20 µM,1.2 µM,> 50 µM,0.3,0.3,13.8 µM,0.027 µM,0.024,0.2,0.3,"cAMP synthesis ([6]; Figs 3B and S2C): activates cAMP synthesis; decrease of extent of lung pathology [12, 24]: ~ 45%; reduction in lung CFUs [12, 24]: ~ 0.4 log10; bacterial burden in the lungs when added to a sub-optimal dose of rifampicin ([12]; mouse, in vivo): did not increase the bacterial burden; reduction in lung CFUs ([12]; mouse, in vivo): ~ 0.4 log10"
Cn1ncnc1CC(=O)N1CC2CC1CC2c1nc(-c2ccc(Cl)c(F)c2)no1 (centres unmarked) [mCLF178],,0.116,> 20 µM,186 µM,> 30 µM,> 20 µM,> 20 µM,> 50 µM,0.3,0.3,22.9 µM,0.083 µM,0.111,0.2,0.3,
